PMC3049593 (British Journal of Cancer, 2011)

How the values were obtained:
[1] = tumour and tissue pharmacokinetics of [3H]-PG545 in Hep3b tumour-bearing mice; assay type: in vivo; details: for tumour AUC0-t / tumour Cmax: model independent analysis; for Kt, rate constant of uptake from the tumor / t½b / t½t: one compartment model
From the text: (§1) Analysis of the tumour [^3H]-PG545 concentration vs time data required use of a more physiologically based PK model such that tumour concentrations were estimated from the tumour mass being perfused with blood containing [^3H]-PG545 and where the blood [^3H]-PG545 concentration changed over time.
Table S1 – Pharmacokinetic analysis of mean tumour [3H]-PG545 concentrations in […]
Model Independent Analysis of Mean Tumor [3H]-PG545 Conc. Versus Time Data Parameter First Dose Second Dose Third Dose Notes: Cmax and Tmax were derived from visual inspection of the data following Cmax (µ g/ml) 37 45 44 s.c. administration of up to three doses of […]
One Compartment Model derived from Mean Tumor [3H]-PG545 Conc. Versus Time Data Parameter First Dose Second Dose Third Dose Notes: Based on assumptions including - 1) All processes are linear with no […]
timeframe of the experiment.
3) Tumor [3H]-PG545 conc is driven by the blood conc of [3H]-PG545 t½t (h) 15.7 15.4 16.3 4) Rate of uptake is proportional to blood […]
5) Rate of return from tumor to blood is proportional to tumor conc.
Kb is the rate constant of uptake into the tumor, in h-1
Kt is the rate constant of uptake from the tumor, in h-1 […]
(§2) Pharmacokinetic sampling and analysis
(§3) Samples were collected from three animals at each of four time points – 12 hours, 24 hours, 48 hours and 96 hours post-treatment. At each of these times, whole blood was collected by cardiac puncture and tumours were excised. After collection, 0.2 mL of whole blood was added to a glass scintillation vial to which 1 mL Solvable was added.
(§4) Samples were incubated for one hour at 55-60°C. 0.1 mL of 0.1 M EDTA-di-sodium salt solution and 0.3 mL to 0.5 mL of 30% hydrogen peroxide in 0.1 mL aliquots were added to the sample. Samples were gently agitated between additions to allow reaction foaming to subside. Samples were incubated for 30 minutes at room temperature. Vials were capped tightly and incubated again at 55 – 60 °C fo r 1 hour. Samples were cooled to room temperature and 15 mL of ULTIMA Gold added.
(§5) For tumour samples, 100 mg of tissue was placed in a 20 mL glass scintillation vial and 2 mL of Solvable added. The samples were incubated at 50 - 60 °C for 1 hour with occasional swirling. Samples were cooled to room temperature and for tumours, 0.3 mL of 30% hydrogen peroxide in three aliquots of 0.1 mL were added. The samples were again incubated at 50 - 60 °C for 1 hour with occasional swirling. Tumours samples were […]
(§6) then treated with 15 mL of ULTIMA Gold. To count radioactivity, a Tri-Carb 2800TR liquid scintillation counter from PerkinElmer was used at the Institute of Medical and Veterinary Science (Adelaide, Australia). All parameters were calculated using the QuantaSmart software package. Where DPM values were missing, the following procedure was performed. Efficiency was calculated by generating an efficiency curve using complete samples (where efficiency = Counts Per Minute/Disintegrations Per Minute), and plotted these values against the provided corresponding transformed spectral index of external standard (tSIE) values.
(§7) The pharmacokinetic parameters, Cmax (maximum plasma concentration), Tmax (time of maximum plasma concentration), kelim (terminal elimination rate constant), t½ (half-life), and AUC (area under the concentration versus time curve) were derived from the blood [3H]-PG545 concentration versus time data using model independent methods. In addition, a linear pharmacokinetic model comprising mono-exponential absorption and bi-exponential disposition and elimination was used to simultaneously model the mean blood concentration versus time data for [3H]-PG545 and the following pharmacokinetic parameters, Cmax and Tmax, t½, AUC0-t and AUC0-∞ for [3H]-PG545 were estimated.
(§8) Analysis of the tumour [3H]-PG545 concentration versus time data required use of a more physiologically-based pharmacokinetic model such that tumour concentrations were estimated on the basis of the tumour mass being perfused with blood containing [3H]- […]

[2] = blood pharmacokinetics of [3H]-PG545 in Hep3b tumour-bearing mice; assay type: in vivo; details: for AUC0−t / Cmax / Tmax / t½: blood, 20 mg kg^−1 every 96 h
Experimental: as §1, with “time. […]” for “time.”
as §2, §3, §4, §5, §6, §7, §8
(Applied Biosystems) preceded by a Spark Symbiosis Direct On-line Solid Phase Extraction system. Briefly, using a deep-well 96-well plate, 100 µL plasma was mixed with 10 µL standard solution (or water for unknowns) plus 10 µL internal standard solution (PG562 at 100 µg/mL (deionised water for double blank)).This was then mixed for at least 1 min (Ratek Platform Shaker) and incubated at room temperature for 20 mins prior to addition of 25 µL SDS solution (10 mg SDS in 1 mL deionised water) + 75 µL CHAPS solution (50 mg CHAPS in 1 mL deionised water) and 50 µL Proteinase K solution (10 mg Proteinase K in 1 mL 5 mM CaCl2). Following a mixing step this was incubated at 37°C for 2.5 hours prior to addition of 250 µL deionised water and placed into the Spark Symbiosis system.
The Tmax and Cmax on each sampling day were determined for each dose level by visual inspection of the mean data. […]

[3] = system: Hep3b2.1-7 tumours; assay: orthotopic Hep3b2.1-7 human liver cancer model; assay type: in vivo, mice; details: 30 mg kg^−1 daily
Experimental: (§9) In the orthotopic Hep3b2.1-7 human liver cancer model, treatment of mice (n=10) began 14 days after inoculation of 2.5 × 10^6 cells. […] To initiate tumour xenografts, MDA-MB-231, PC3, Cal27 and HepG2 cells were injected s.c. into nude mice (n=8) at 4, 5, 2 and 2 × 10^7 cells ml^−1, respectively. […] In the B16F0 lung metastasis model, 2 × 10^5 cells were injected via the tail vein of C57Bl6 mice (n=8). […] Surface lung macrometastases were counted for each group (n=9) upon study termination. In the intrasplenic HT-29 xenograft model, 1 × 10^6 cells in 100 μl were injected into the spleen. […] Solid tumours were measured in two dimensions (length and width) and the tumour volume (cm^3) was calculated using the equation: V=length × width^2 × π/6. The anti-tumour activity was expressed as percent tumour growth inhibition (%TGI). Further details are available in Supplementary Methods. […]
In the Hep3b2.1-7 model, the cells resuspended in HBSS:MatrigelTM (1:1, v/v) to a final concentration of 5 x 10^8 cells/mL were inoculated following an incision into the skin directly over the liver to expose the main lobe of the liver. The needle was introduced into the main lobe of the liver, where 2.5 x 106 Hep3b2.1-7 cells (in 5 µL with 50% Matrigel) were discharged. The treatment of mice began 24 days after inoculation of the […]
either a once or twice weekly dosing schedule (see figure legends for dose schedules in each study) for up to three weeks. […]
(§10) efficacy/PK study) using either a once or twice weekly dosing schedule (see figure legends for dose schedules in each study) for up to three weeks. […]
(§11) In relevant models, solid tumours were measured in two dimensions (length and width) and the tumour volume (mm3) calculated using the equation V = length × width2 × π/6.The anti-tumour activity was assessed by the comparison of the mean tumour volume of the treated groups to the mean tumour volume of the control group and expressed as the percent Tumour Growth Inhibition (TGI) using the equation:
(§12) %TGI = (1-((VendPG545 - VstartPG545) / (VendControl - VstartControl)))*100 VendPG545 = Ending Tumour Volume of PG545-treated animal
(§13) VstartPG545 = Starting Tumour Volume of PG545-treated animal
(§14) VendControl = Ending Tumour Volume of Control animal
(§15) VstartControl = Starting Tumour Volume of Control animal […]
(§16) After collection, 0.2 mL of […]
(§17) whole blood was added to a glass scintillation vial to which 1 mL Solvable was added.
as §4, with “Vials were capped tightly and incubated again at 55 – 60 °C fo r 1 hour. Samples were cooled to room temperature and 15 mL of ULTIMA Gold added.” left out

[4] = system: LL/2 tumours and lung metastases; assay: syngeneic Lewis Lung Carcinoma (LL/2) tumour growth and spontaneous metastasis model; assay type: in vivo, mice
Experimental: as §9, §10
In the LL/2 mouse model, treatment of mice commenced on the day of inoculation (Day 0). Mice inoculated subcutaneously were treated with either Vehicle Control […]
once weekly or Sorafenib (60mg/kg, once daily, p.o.). The treatments were continued for three weeks. The lungs were excised from all mice at the time of culling for metastasis […]
count determination. […]
as §11, §12, §13, §14, §15, §16, §17, §4, §5

[5] = 20 mg kg^−1 s.c. every 96 h, three doses

Compound: [3H][C@H]1[C@H](O[C@@H]2O[C@H](COS(=O)(=O)[O-])[C@@H](O[C@H]3O[C@H](COS(=O)(=O)[O-])[C@@H](O[C@H]4O[C@H](COS(=O)(=O)[O-])[C@@H](O[C@H]5O[C@H](COS(=O)(=O)[O-])[C@@H](OS(=O)(=O)[O-])[C@H](OS(=O)(=O)[O-])[C@H]5OS(=O)(=O)[O-])[C@H](OS(=O)(=O)[O-])[C@H]4OS(=O)(=O)[O-])[C@H](OS(=O)(=O)[O-])[C@H]3OS(=O)(=O)[O-])[C@H](OS(=O)(=O)[O-])[C@H]2OS(=O)(=O)[O-])C[C@@H]2CC[C@H]3[C@@H]4CC[C@H]([C@H](C)CCCC(C)C)[C@@]4(C)CC[C@@H]3[C@@]2(C)[C@H]1[3H].[Na+].[Na+].[Na+].[Na+].[Na+].[Na+].[Na+].[Na+].[Na+].[Na+].[Na+].[Na+].[Na+] [[^3H]-PG545]
- Cmax in kidney ([1]; following a single dose): 39 µg/g
- Cmax in liver ([1]; following a single dose): 106 µg/g
- tumour AUC0-t ([1]; first dose): 2800 µ g.h/g
- tumour Cmax ([1]; first dose): 37 µ g/ml
- tumour AUC0-t ([1]; second dose): 3662 µ g.h/g
- tumour Cmax ([1]; second dose): 45 µ g/ml
- tumour AUC0-t ([1]; third dose): 3304 µ g.h/g
- tumour Cmax ([1]; third dose): 44 µ g/ml
- Kt, rate constant of uptake from the tumor ([1]; first dose): 0.0441 h⁻¹
- t½b ([1]; first dose): 12.8 h
- t½t ([1]; first dose): 15.7 h
- Kt, rate constant of uptake from the tumor ([1]; second dose): 0.0449 h⁻¹
- t½b ([1]; second dose): 13.3 h
- t½t ([1]; second dose): 15.4 h
- Kt, rate constant of uptake from the tumor ([1]; third dose): 0.0425 h⁻¹
- t½b ([1]; third dose): 16.5 h
- t½t ([1]; third dose): 16.3 h
- t½b, uptake from the bloodstream into the tumour (range over doses) ([1]; one-compartment PK model): 12.8 to 16.5 h
- tumour Cmax (range over doses) ([1]; tumour tissue, 20 mg kg^−1 s.c. every 96 h, three doses): 36.6 to 45.1 µg/g
- tumour Tmax ([1]; tumour tissue, one dose (first dose)): 12 h
- tumour Tmax ([1]; tumour tissue, three doses (third dose)): ≥ 96 h
- tumour Tmax ([1]; tumour tissue, two doses (second dose)): 48 h
- mean blood Cmax (range over doses) [2, 5]: 25900 to 29000 ng/mL
- mean blood Tmax (range over doses) [2, 5]: 2 to 6 h
- mean elimination half-life (t½) in blood ([2]; 20 mg kg^−1 s.c., up to three bolus doses at 96 h intervals): > 50 h
- AUC0−t ([2]; first dose): 991 µg·h/mL
- Cmax ([2]; first dose): 28000 ng/mL
- Tmax ([2]; first dose): 4 h
- t½ ([2]; first dose): 65 h
- AUC0−t ([2]; second dose): 1208 µg·h/mL
- Cmax ([2]; second dose): 26000 ng/mL
- Tmax ([2]; second dose): 2 h
- AUC0−t ([2]; third dose): 1556 µg·h/mL
- Cmax ([2]; third dose): 29000 ng/mL
- Tmax ([2]; third dose): 6 h
- t½ ([2]; third dose): 117 h

Compound: CNC(=O)c1cc(Oc2ccc(NC(=O)Nc3ccc(Cl)c(C(F)(F)F)c3)cc2)ccn1 [sorafenib, reference compound]
- TGI [3]: 58%
- effect on metastasis ([4]; 60 mg kg^−1 daily): no effect on metastasis
- TGI (primary tumour) ([4]; 60 mg kg^−1 qd): 44%
